Measurements taken from the NIST ThermoML archive (doi:10.1016/j.fluid.2017.06.022).
± gives the expanded uncertainty stated by the source.

Assay: xn = mol fraction of the nth substance listed
Settings: Liquid, Bellows volumetry

SMILES: C=C [ethene] + Cc1ccccc1
- mass density (421 K, 37600 kPa, x1 = 0.3067): 688.2 ± 16 kg/m3
- mass density (421 K, 44700 kPa, x1 = 0.3067): 698 ± 17 kg/m3
- mass density (421 K, 51000 kPa, x1 = 0.3067): 705.4 ± 17 kg/m3
- mass density (421 K, 58300 kPa, x1 = 0.3067): 714.6 ± 17 kg/m3
- mass density (421 K, 63100 kPa, x1 = 0.3067): 720.1 ± 17 kg/m3
- mass density (421 K, 66800 kPa, x1 = 0.3067): 724 ± 17 kg/m3
- mass density (422.2 K, 2530 kPa, x1 = 0.1194): 681.2 ± 16 kg/m3
- mass density (422.2 K, 2830 kPa, x1 = 0.1194): 682.2 ± 16 kg/m3
- mass density (422.2 K, 3620 kPa, x1 = 0.1194): 684.1 ± 16 kg/m3
- mass density (422.2 K, 5330 kPa, x1 = 0.1194): 688.4 ± 16 kg/m3
- mass density (422.2 K, 7040 kPa, x1 = 0.1194): 692.2 ± 17 kg/m3
- mass density (422.2 K, 7110 kPa, x1 = 0.1194): 692.2 ± 17 kg/m3
- mass density (422.2 K, 10420 kPa, x1 = 0.1194): 699.6 ± 17 kg/m3
- mass density (422.2 K, 13400 kPa, x1 = 0.1194): 705.1 ± 17 kg/m3
- mass density (422.2 K, 17400 kPa, x1 = 0.1194): 712.2 ± 17 kg/m3
- mass density (422.2 K, 20480 kPa, x1 = 0.1194): 716.9 ± 17 kg/m3
- mass density (422.2 K, 22980 kPa, x1 = 0.1194): 720.6 ± 17 kg/m3
- mass density (422.2 K, 24010 kPa, x1 = 0.1194): 722.1 ± 17 kg/m3
- mass density (422.2 K, 30990 kPa, x1 = 0.1194): 731.2 ± 18 kg/m3
- mass density (422.2 K, 37420 kPa, x1 = 0.1194): 739.4 ± 18 kg/m3
- mass density (422.2 K, 44550 kPa, x1 = 0.1194): 747.3 ± 18 kg/m3
- mass density (422.2 K, 51320 kPa, x1 = 0.1194): 755.3 ± 18 kg/m3
- mass density (422.2 K, 58240 kPa, x1 = 0.1194): 762.3 ± 18 kg/m3
- mass density (422.2 K, 63240 kPa, x1 = 0.1194): 767.6 ± 18 kg/m3
- mass density (422.2 K, 67210 kPa, x1 = 0.1194): 771.2 ± 18 kg/m3
- mass density (470.9 K, 3430 kPa, x1 = 0.1194): 616.2 ± 15 kg/m3
- mass density (470.9 K, 3560 kPa, x1 = 0.1194): 617.7 ± 15 kg/m3
- mass density (470.9 K, 4240 kPa, x1 = 0.1194): 620.4 ± 15 kg/m3
- mass density (470.9 K, 4990 kPa, x1 = 0.1194): 623.6 ± 15 kg/m3
- mass density (470.9 K, 5950 kPa, x1 = 0.1194): 627.5 ± 15 kg/m3
- mass density (470.9 K, 7310 kPa, x1 = 0.1194): 631.9 ± 15 kg/m3
- mass density (470.9 K, 10590 kPa, x1 = 0.1194): 642.6 ± 15 kg/m3
- mass density (470.9 K, 14000 kPa, x1 = 0.1194): 652.4 ± 16 kg/m3
- mass density (470.9 K, 16940 kPa, x1 = 0.1194): 659.8 ± 16 kg/m3
- mass density (470.9 K, 24260 kPa, x1 = 0.1194): 676.6 ± 16 kg/m3
- mass density (470.9 K, 31240 kPa, x1 = 0.1194): 690.3 ± 17 kg/m3
- mass density (470.9 K, 37460 kPa, x1 = 0.1194): 701.1 ± 17 kg/m3
- mass density (470.9 K, 41500 kPa, x1 = 0.1194): 707.1 ± 17 kg/m3
- mass density (470.9 K, 44850 kPa, x1 = 0.1194): 712.2 ± 17 kg/m3
- mass density (470.9 K, 51420 kPa, x1 = 0.1194): 720.6 ± 17 kg/m3
- mass density (470.9 K, 58440 kPa, x1 = 0.1194): 729.1 ± 18 kg/m3
- mass density (470.9 K, 62650 kPa, x1 = 0.1194): 733.4 ± 18 kg/m3
- mass density (470.9 K, 67380 kPa, x1 = 0.1194): 738.3 ± 18 kg/m3
- mass density (475.1 K, 7800 kPa, x1 = 0.3067): 540.4 ± 13 kg/m3
- mass density (475.1 K, 8600 kPa, x1 = 0.3067): 545.2 ± 13 kg/m3
- mass density (475.1 K, 9400 kPa, x1 = 0.3067): 551 ± 13 kg/m3
- mass density (475.1 K, 10600 kPa, x1 = 0.3067): 557.2 ± 13 kg/m3
- mass density (475.1 K, 12100 kPa, x1 = 0.3067): 565.4 ± 14 kg/m3
- mass density (475.1 K, 14000 kPa, x1 = 0.3067): 572.7 ± 14 kg/m3
- mass density (475.1 K, 17400 kPa, x1 = 0.3067): 586 ± 14 kg/m3
- mass density (475.1 K, 20700 kPa, x1 = 0.3067): 598.4 ± 14 kg/m3
- mass density (475.1 K, 24300 kPa, x1 = 0.3067): 609 ± 15 kg/m3
- mass density (475.1 K, 30800 kPa, x1 = 0.3067): 625.7 ± 15 kg/m3
- mass density (475.1 K, 37500 kPa, x1 = 0.3067): 640.8 ± 15 kg/m3
- mass density (475.1 K, 44500 kPa, x1 = 0.3067): 654.3 ± 16 kg/m3
- mass density (475.1 K, 51800 kPa, x1 = 0.3067): 666.5 ± 16 kg/m3
- mass density (475.1 K, 58100 kPa, x1 = 0.3067): 676.2 ± 16 kg/m3
- mass density (475.1 K, 63100 kPa, x1 = 0.3067): 682.6 ± 16 kg/m3
- mass density (475.1 K, 67400 kPa, x1 = 0.3067): 687.7 ± 16 kg/m3
- mass density (519 K, 4500 kPa, x1 = 0.1194): 541.1 ± 13 kg/m3
- mass density (519 K, 5100 kPa, x1 = 0.1194): 547.1 ± 13 kg/m3
- mass density (519 K, 6120 kPa, x1 = 0.1194): 555.5 ± 13 kg/m3
- mass density (519 K, 7100 kPa, x1 = 0.1194): 562.7 ± 14 kg/m3
- mass density (519 K, 8870 kPa, x1 = 0.1194): 573.5 ± 14 kg/m3
- mass density (519 K, 10630 kPa, x1 = 0.1194): 583 ± 14 kg/m3
- mass density (519 K, 13940 kPa, x1 = 0.1194): 597.1 ± 14 kg/m3
- mass density (519 K, 14140 kPa, x1 = 0.1194): 598.2 ± 14 kg/m3
- mass density (519 K, 17480 kPa, x1 = 0.1194): 610.1 ± 15 kg/m3
- mass density (519 K, 24180 kPa, x1 = 0.1194): 630.3 ± 15 kg/m3
- mass density (519 K, 31210 kPa, x1 = 0.1194): 647.7 ± 16 kg/m3
- mass density (519 K, 38050 kPa, x1 = 0.1194): 662.1 ± 16 kg/m3
- mass density (519 K, 44340 kPa, x1 = 0.1194): 674.3 ± 16 kg/m3
- mass density (519 K, 51320 kPa, x1 = 0.1194): 686.5 ± 16 kg/m3
- mass density (519 K, 51390 kPa, x1 = 0.1194): 686.5 ± 16 kg/m3
- mass density (519 K, 58160 kPa, x1 = 0.1194): 697.1 ± 17 kg/m3
- mass density (519 K, 63090 kPa, x1 = 0.1194): 704.6 ± 17 kg/m3
- mass density (519 K, 66990 kPa, x1 = 0.1194): 709.7 ± 17 kg/m3
- mass density (519.3 K, 8400 kPa, x1 = 0.3067): 448 ± 11 kg/m3
- mass density (519.3 K, 8600 kPa, x1 = 0.3067): 455.1 ± 11 kg/m3
- mass density (519.3 K, 9400 kPa, x1 = 0.3067): 472 ± 11 kg/m3
- mass density (519.3 K, 10500 kPa, x1 = 0.3067): 482.9 ± 12 kg/m3
- mass density (519.3 K, 12000 kPa, x1 = 0.3067): 499.7 ± 12 kg/m3
- mass density (519.3 K, 13800 kPa, x1 = 0.3067): 513.9 ± 12 kg/m3
- mass density (519.3 K, 14100 kPa, x1 = 0.3067): 515.9 ± 12 kg/m3
- mass density (519.3 K, 15900 kPa, x1 = 0.3067): 525.1 ± 13 kg/m3
- mass density (519.3 K, 17200 kPa, x1 = 0.3067): 535.5 ± 13 kg/m3
- mass density (519.3 K, 20900 kPa, x1 = 0.3067): 553.6 ± 13 kg/m3
- mass density (519.3 K, 24100 kPa, x1 = 0.3067): 565.7 ± 14 kg/m3
- mass density (519.3 K, 31300 kPa, x1 = 0.3067): 589.3 ± 14 kg/m3
- mass density (519.3 K, 37800 kPa, x1 = 0.3067): 605 ± 14 kg/m3
- mass density (519.3 K, 44900 kPa, x1 = 0.3067): 621.2 ± 15 kg/m3
- mass density (519.3 K, 51600 kPa, x1 = 0.3067): 636.4 ± 15 kg/m3
- mass density (519.3 K, 58300 kPa, x1 = 0.3067): 647.5 ± 16 kg/m3
- mass density (519.3 K, 63100 kPa, x1 = 0.3067): 656.6 ± 16 kg/m3
- mass density (519.3 K, 67100 kPa, x1 = 0.3067): 662.7 ± 16 kg/m3
